Measurements from US20150344426A1, “COMPOUNDS AND THERAPEUTIC USES THEREOF” (ALZHEIMER'S INSTITUTE OF AMERICA, INC., priority 2012, published 2015).
Values joined by “and” are separate entries in the source; they are usually repeats but may differ in a detail not shown here. Equal entries are not always repeated. Where two headings read alike, the source gives them in different places.

What was measured:
[1] = Kinetic solubility (iSol Explorer method); type: physicochemical; conditions: system solution buffer (pION), aqueous buffer, kinetic from dmso stock
Description: Kinetic solubility was determined using the iSol Explorer method (pION Inc.; Woburn, Mass.). Certain Example Compounds were dissolved in dimethylsulfoxide (DMSO; >99.9% ACS spectrophotometric grade; Sigma-Aldrich, St. Louis, Mo.) to a concentration of 100 mM. The DMSO stock was diluted 1:100 in system solution buffer (pION Inc. Wobum Mass.) that had been adjusted to the desired pH (5.0, 6.8, and 7.4) with either HCl or NaOH. The diluted samples in the desired buffer were incubated for 15 minutes at room temperature and filtered using 96-well plate with 0.25 mm glass fiber/1.2 μm polyethersulfone filter bottoms (Corning, Inc.; Corning, N.Y.). The filtrate is transferred to a second 96-well plate and read on a SpectraMAX 190 (Molecular Devices; Sunnyvale, Calif.) scanning from 190 to 498 nm. The data are analyzed with Sol Explorer Command version 2.2, (pION Inc. Woburn, Mass.) and the concentration reported in molarity and/or mass per volume.

[2] = Stability in mouse liver microsomal preparations; type: in vitro ADME; conditions: liver microsomes, with and without 1 mM NADPH (not said which), read-out: Mouse Liver Microsomes t1/2
Description: Relative stability of Example Compound Nos. 1 through 60 in mouse plasma and mouse liver microsomal preparations.
Certain Example Compounds were each added to a final concentration of 1 μM to 1 mL of each of mouse plasma and mouse liver microsomal preparations (with and without 1 mM NADPH). Stability assays were run in duplicate and were sampled at 0, 5, 15, 30, 60 and 120 minutes as follows: one hundred microliter aliquots of samples were removed at the specified sampling times, and the reaction was quenched with 400 μL of acetonitrile.
Samples were analyzed by HPLC-ESI-MS/MS by measuring the peak area of both the starting Example Compound and parent compound (i.e., either Parent Compound A or Parent Compound B) that were created by removal of the Prodrug Moiety (as defined in Section 6 herein).

[3] = Experiment 2: femoral vein samples of rats after IV Parent Compound A; type: in vivo, female Sprague Dawley rats; conditions: for [Par. Cmp. A]: listed as Par. Cmp. A
Description: Experiment 2. Three female Sprague Dawley rats (215-250 g, Charles River Laboratories) with a catheter implanted surgically in the femoral vein for blood sampling were used in this study. Parent Compound A, solubilized in 3% DMA, 40% PEG300, 12% ethanol, and 45% water by volume, was administered IV at a dose of 2.5 mg/kg in a volume of 2 mL/kg. Femoral blood samples were collected from each animal at 0.083, 0.25, 0.5, 1, 2, 4, and 8 hours following administration of compound and processed for analysis of Parent Compound A concentration.
Pharmacokinetic parameters estimated for Parent Compound A included the maximum observed drug concentration (Cmax), time of maximum observed drug concentration (Tmax), apparent terminal half-life (t1/2), area under the concentration-time curve from time zero to 8 hours postdose (AUC(0-8)), and area under the concentration-time curve extrapolated to infinity (AUC(0-inf)). The bioavailability (% F) of Parent Compound A in portal vein samples relative to IV administration was also estimated.
Plasma samples were analyzed for Example Compound 35 or Parent Compound A concentration using a LC-MS/MS method. All sample runs met standard acceptance criteria for discovery purposes, and were based on a standard curve containing at least 7 points. At least half of quality control samples at each of the three concentrations tested, and two thirds of the entire quality control sample pool, were within 15% of their theoretical value. The r^2 value for each standard curve was ≧0.99. The quantitation range for the Example Compound 35 and Parent Compound A assays was 1 to 100 ng/mL and 5 to 2,500 ng/mL, respectively, using a 0.05 mL sample volume.
The data were entered into the PK software package WinNonlin® version 5.1.1. A complete data check was conducted to verify the accuracy of data entry.
Pharmacokinetic parameters were estimated on median plasma concentrations using extravascular input (PO). Nominal collection times after administration of compound were used for PK analyses. The use of a non-compartmental model provided an adequate fit of the data. Pharmacokinetic parameters estimated for Parent Compound A included the maximum observed drug concentration (Cmax), time of maximum observed drug concentration (Tmax), apparent terminal half-life (t1/2), apparent volume of distribution (Vz obs), apparent clearance (C1 obs), area under the concentration-time curve from time zero to 8 hours postdose of Example Compound 35 […], and area under the concentration-time curve extrapolated to infinity (AUC(0-inf)). Example Compound 35 was detected in only one 0.25 hour hepatic portal vein sample at 1.29 ng/mL. Any Example Compound 35 present in all of the other samples was below the quantitation limit of 1 ng/mL and pharmacokinetic parameters were not determined for those samples. The median PK parameters estimated for Parent Compound A following portal vein sampling of the oral dose of Example Compound 35 or following femoral vein sampling of the intravenous dose of Parent Compound A are given in the Table 5 below. Individual and median concentration of Parent Compound A and Example Compound 35 in hepatic portal vein following oral administration of Example Compound 35 (20 mg/kg) to rats pursuant to Experiment 1 are shown in Table 6 below. Individual and median plasma concentration of Parent Compound A in femoral vein following IV administration of Parent Compound A (2.5 mg/kg) to rats pursuant to Experiment 2 are shown in Table 7 below. FIG. 5 depicts median concentration of Parent Compound A and Example Compound 35 in hepatic portal vein of rats following a single oral dose of Example Compound 35 (20 mg/kg). FIG. 6 depicts median plasma concentration of Parent Compound A following a single IV dose of Parent Compound A (2.5 mg/kg) to rats. […]

[4] = female, Sprague-Dawley, rat, plasma (femoral vein), Parent Cmpd. A 2.5 mg/kg IV, Femoral Vein, median

**Q.** With `O=C(NCc1ccc[n+](COC(=O)c2ccccc2)c1)Nc1ccc(OCCc2ccccc2-c2ccccc2)cc1` [Example 35, 1-[(Benzoyloxy)methyl]-3-{[({4-[2-(biphenyl-2-yl)ethoxy]phenyl}carbamoyl)amino]methyl} pyridinium] as the molecule, how does the solubility at 15 min ([1]; pH 5.0, 15 minutes at room temperature) read?
**A.** The solubility at 15 min was 402 µM.

**Q.** And the solubility at 15 min ([1]; pH 6.8, 15 minutes at room temperature)?
**A.** Its solubility at 15 min is 404 µM.

**Q.** And the solubility at 15 min ([1]; pH 7.4, 15 minutes at room temperature)?
**A.** The solubility at 15 min was 433 µM.

**Q.** And the half-life at 1 µM [2]?
**A.** Its half-life at 1 µM is under 5 min.

**Q.** With `O=C(NCc1cccnc1)Nc1ccc(OCCc2ccccc2-c2ccccc2)cc1` [Parent Compound A, 1-{4-[2-(Biphenyl-2-yl)ethoxy]phenyl}-3-(pyridin-3-ylmethyl)urea] as the molecule, how does the concentration at 0.083 h ([3]; female, Sprague-Dawley, rat, plasma (femoral vein), iv, 2.5 mg/kg, femoral vein plasma, 0.083 hr after IV Parent Compound A 2.5 mg/kg, read-out: Median [Par. Cmp. A]) read?
**A.** Its concentration at 0.083 h is 1920 ng/mL.

**Q.** What about the concentration at 0.25 h ([3]; female, Sprague-Dawley, rat, plasma (femoral vein), iv, 2.5 mg/kg, femoral vein plasma, 0.25 hr after IV Parent Compound A 2.5 mg/kg, individual rats, read-out: [Par. Cmp. A]) of the same molecule?
**A.** The concentration at 0.25 h was 1610 ng/mL.

**Q.** And the concentration at 0.25 h ([3]; female, Sprague-Dawley, rat, plasma (femoral vein), iv, 2.5 mg/kg, femoral vein plasma, 0.25 hr after IV Parent Compound A 2.5 mg/kg, read-out: Median [Par. Cmp. A])?
**A.** The concentration at 0.25 h was 1130 ng/mL.

**Q.** And the concentration at 0.5 h ([3]; female, Sprague-Dawley, rat, plasma (femoral vein), iv, 2.5 mg/kg, femoral vein plasma, 0.5 hr after IV Parent Compound A 2.5 mg/kg, individual rats, read-out: [Par. Cmp. A])?
**A.** The concentration at 0.5 h was 568 ng/mL.

**Q.** What about the concentration at 0.5 h ([3]; female, Sprague-Dawley, rat, plasma (femoral vein), iv, 2.5 mg/kg, femoral vein plasma, 0.5 hr after IV Parent Compound A 2.5 mg/kg, read-out: Median [Par. Cmp. A]) of the same molecule?
**A.** The concentration at 0.5 h was 720 ng/mL.

**Q.** What about the concentration at 1 h ([3]; female, Sprague-Dawley, rat, plasma (femoral vein), iv, 2.5 mg/kg, femoral vein plasma, 1 hr after IV Parent Compound A 2.5 mg/kg, individual rats, read-out: [Par. Cmp. A]) of the same molecule?
**A.** The concentration at 1 h was 343 ng/mL.

**Q.** And the concentration at 1 h ([3]; female, Sprague-Dawley, rat, plasma (femoral vein), iv, 2.5 mg/kg, femoral vein plasma, 1 hr after IV Parent Compound A 2.5 mg/kg, read-out: Median [Par. Cmp. A])?
**A.** The concentration at 1 h was 360 ng/mL.

**Q.** What about the concentration at 2 h ([3]; female, Sprague-Dawley, rat, plasma (femoral vein), iv, 2.5 mg/kg, femoral vein plasma, 2 hr after IV Parent Compound A 2.5 mg/kg, individual rats, read-out: [Par. Cmp. A]) of the same molecule?
**A.** The concentration at 2 h was 136 ng/mL.

**Q.** What about the concentration at 2 h ([3]; female, Sprague-Dawley, rat, plasma (femoral vein), iv, 2.5 mg/kg, femoral vein plasma, 2 hr after IV Parent Compound A 2.5 mg/kg, read-out: Median [Par. Cmp. A]) of the same molecule?
**A.** The concentration at 2 h was 177 ng/mL.

**Q.** And the concentration at 4 h ([3]; female, Sprague-Dawley, rat, plasma (femoral vein), iv, 2.5 mg/kg, femoral vein plasma, 4 hr after IV Parent Compound A 2.5 mg/kg, read-out: Median [Par. Cmp. A])?
**A.** Its concentration at 4 h is 26.2 ng/mL.

**Q.** And the concentration at 8 h ([3]; female, Sprague-Dawley, rat, plasma (femoral vein), iv, 2.5 mg/kg, femoral vein plasma, 8 hr after IV Parent Compound A 2.5 mg/kg, individual rats, * = below the quantitation limit of 5 ng/mL, read-out: [Par. Cmp. A])?
**A.** Its concentration at 8 h is 1.98 ng/mL.

**Q.** And the concentration at 8 h ([3]; female, Sprague-Dawley, rat, plasma (femoral vein), iv, 2.5 mg/kg, femoral vein plasma, 8 hr after IV Parent Compound A 2.5 mg/kg, read-out: Median [Par. Cmp. A])?
**A.** Its concentration at 8 h is 2.1 ng/mL.

**Q.** What about the AUC(0-inf) [3, 4] of the same molecule?
**A.** Its AUC(0-inf) is 1460 ng·h/mL.

**Q.** And the Cmax [3, 4]?
**A.** The Cmax was 1920 ng/mL.

**Q.** And the Tmax [3, 4]?
**A.** Its Tmax is 4.2 min.

**Q.** What about the half-life [3, 4] of the same molecule?
**A.** The half-life was 60 min.

**Q.** What about the AUC(0-t) ([3]; female, Sprague-Dawley, rat, plasma (femoral vein), Parent Cmpd. A 2.5 mg/kg IV, Femoral Vein, median, read-out: AUC(0-8)) of the same molecule?
**A.** The AUC(0-t) was 1460 ng·h/mL.

**Q.** And the “[Par. Cmp. A]” value ([3]; femoral vein plasma, 0.083 hr after IV Parent Compound A 2.5 mg/kg, individual rats, 2.5 mg/kg)?
**A.** The value was 1,303.7 ng/mL and 2,660.1 ng/mL and 1,924.0 ng/mL.

**Q.** What about the “[Par. Cmp. A]” value ([3]; femoral vein plasma, 0.25 hr after IV Parent Compound A 2.5 mg/kg, individual rats, 2.5 mg/kg) of the same molecule?
**A.** Its value is 1,131.8 ng/mL and 878.3 ng/mL.

**Q.** And the “[Par. Cmp. A]” value ([3]; femoral vein plasma, 0.5 hr after IV Parent Compound A 2.5 mg/kg, individual rats, 2.5 mg/kg)?
**A.** Its value is 1,062.6 ng/mL and 719.5 ng/mL.

**Q.** And the “[Par. Cmp. A]” value ([3]; femoral vein plasma, 1 hr after IV Parent Compound A 2.5 mg/kg, individual rats, 2.5 mg/kg)?
**A.** Its value is 565.0 ng/mL and 360.4 ng/mL.

**Q.** What about the “[Par. Cmp. A]” value ([3]; femoral vein plasma, 2 hr after IV Parent Compound A 2.5 mg/kg, individual rats, 2.5 mg/kg) of the same molecule?
**A.** Its value is 268.6 ng/mL and 177.2 ng/mL.

**Q.** What about the “[Par. Cmp. A]” value ([3]; femoral vein plasma, 4 hr after IV Parent Compound A 2.5 mg/kg, individual rats, 2.5 mg/kg) of the same molecule?
**A.** The value was 19.7 ng/mL and 39.7 ng/mL and 26.2 ng/mL.

**Q.** What about the “[Par. Cmp. A]” value ([3]; femoral vein plasma, 8 hr after IV Parent Compound A 2.5 mg/kg, individual rats, * = below the quantitation limit of 5 ng/mL, 2.5 mg/kg) of the same molecule?
**A.** The value was 2.05* ng/mL and 2.81* ng/mL.
